Here are results for 118 sequences from the OligoGym collection.

These antisense oligonucleotides have a phosphorothioate backbone; sugars and methylation of C are not fully specified.
Note: test concentration or dose not given here.

One data set deals with AKT1. The following applies: ASO.
The sequence TACTCCCCTCGTTTGTGC yielded a remaining target (mRNA or protein) (fraction of control) of at least 1.
Take TACTCAGGTGTGCCGCAA: the remaining target (mRNA or protein) (fraction of control) was 0.34.
ACAGCGTGGCTTCTCTCA came in with a remaining target (mRNA or protein) (fraction of control) of 0.88.
On the same count and under the same terms, to ATTTGAACAACATAATAC belongs 0.89.
TGCCATCATTCTTGAGGA: the remaining target (mRNA or protein) (fraction of control) came out at 0.35.
As to TCCTCCTCCTCCTGCTTC, the remaining target (mRNA or protein) (fraction of control) is 0.91.
Same read-out and setting: to AGTCTGGATGGCGGTTGT belongs 0.51; to GCCTCTCCATCCCTCCAA, 0.24.
Sequence CTCGCTGTCCACACACTC had a remaining target (mRNA or protein) (fraction of control) of 0.39.
GTGCCGCAAAAGGTCTTC: the remaining target (mRNA or protein) (fraction of control) was 0.34.
Regarding AAAATACTAAAGTTGAAT, the remaining target (mRNA or protein) (fraction of control) was determined as 0.75.
On to TCAAAATACCTGGTGTCA, for which the remaining target (mRNA or protein) (fraction of control) was found to be 0.49.
The sequence CATAATACACAATAACAA returned a remaining target (mRNA or protein) (fraction of control) of 0.61.
In turn, CTGGCTGACAGAGTGAGG yielded a remaining target (mRNA or protein) (fraction of control) of 0.41.
In the case of GCTGCTGTGTGCCTGCCA, the remaining target (mRNA or protein) (fraction of control) amounted to 0.62.
In turn, GGAGAACAAACTGGATGA gave a remaining target (mRNA or protein) (fraction of control) of at least 1.
In turn, AAAGTTGAATGTTGTAAA gave a remaining target (mRNA or protein) (fraction of control) of 0.9.
Sequence GGCAGCCCCTTTGACTTC displayed a remaining target (mRNA or protein) (fraction of control) of 0.47.
TTTTCTTCCCTACCCCGC showed a remaining target (mRNA or protein) (fraction of control) of 0.36.
On the same count and under the same terms, to CCGAAAGTGCCCTTGCCC belongs 0.44; to GCCACGATGACTTCCTTC, 0.4; to AAGTGCTACCGTGGAGAG, 0.43.
ACGTTCTTCTCCGAGTGC displayed a remaining target (mRNA or protein) (fraction of control) of 0.7.
As to CAACCCTCCTTCACAATA, the remaining target (mRNA or protein) (fraction of control) came out at 0.76.
Same read-out and setting: for CACAGAGAAGTTGTTGAG the value was 0.78.
CGAAAAGGTCAAGTGCTA showed a remaining target (mRNA or protein) (fraction of control) of 0.59.
The sequence GCCGTGAACTCCTCATCA showed a remaining target (mRNA or protein) (fraction of control) of 0.44.
On to GCGGCTGGCTGACAGAGT, for which the remaining target (mRNA or protein) (fraction of control) was 0.39.
CCTGAGTTGTCACTGGGT: the remaining target (mRNA or protein) (fraction of control) is 0.51.
For CCCTGTGCCCTGTCCCAG, the remaining target (mRNA or protein) (fraction of control) stood at 0.45.
CCCAGAGAGATGACAGAT registered a remaining target (mRNA or protein) (fraction of control) of 0.54.
The sequence CTTTGACTTCTTTGACCC came in with a remaining target (mRNA or protein) (fraction of control) of 0.32.
For the sequence GGCTTGAAGGGTGGGCTG, the remaining target (mRNA or protein) (fraction of control) came out at 0.59.
In turn, TAAAACCCGCAGGATAGT registered a remaining target (mRNA or protein) (fraction of control) of 0.26.
Take GATAGTTTTCTTCCCTAC: the remaining target (mRNA or protein) (fraction of control) was at least 1.
As for AGCCAATGAAGGTGCCAT, the remaining target (mRNA or protein) (fraction of control) stood at 0.33.
The sequence CCTAAGCCCCTGGTGACA displayed a remaining target (mRNA or protein) (fraction of control) of 0.85.
Regarding GGTCAGGTGGTGTGATGG, the remaining target (mRNA or protein) (fraction of control) is at least 1.
Sequence CAGGGAGTCAGGGAGGGC showed a remaining target (mRNA or protein) (fraction of control) of 0.87.
Consider CGGTCCTCGGAGAACACA, for which the remaining target (mRNA or protein) (fraction of control) is at least 1.

In the next data set the target is GNAI1. The following applies: ASO.
Sequence ATTTCCTTTGTGTCCTTT displayed a remaining target (mRNA or protein) (fraction of control) of 0.41.
The sequence CACATTCTTAGTATCTGT displayed a remaining target (mRNA or protein) (fraction of control) of 0.85.
In the case of TTCTGTCCAAGTCATTCA, the remaining target (mRNA or protein) (fraction of control) worked out at 0.64.
TGTGTCCTTTCTTTTATT had a remaining target (mRNA or protein) (fraction of control) of 0.63.
CAATTCCTGTAGTTTTCA displayed a remaining target (mRNA or protein) (fraction of control) of 0.8.
Still for that read-out and setting: for CCACTATCTTTCCACAAT the value was 0.84; for AATCCTAAGTTGCCACTC, 0.4.
For TTTGAAAGTAAAATGGGT, the remaining target (mRNA or protein) (fraction of control) was at least 1.
Consider CATGAACATAAATAAAGC, for which the remaining target (mRNA or protein) (fraction of control) is at least 1.
Same read-out and setting: for GTATAATGGATGTATCTG the value was 0.86; for ATTCAAATAGTATGCTGC, at least 1; for TTATGTTATTTCCAAAGC, 0.87.
On to ATAAAGCCTTCTTCAGCA, for which the remaining target (mRNA or protein) (fraction of control) came to 0.78.
The sequence CCTTCTGTTACTTTCAGT yielded a remaining target (mRNA or protein) (fraction of control) of 0.75.
TCACCAAAGTCTATCTTC came in with a remaining target (mRNA or protein) (fraction of control) of at least 1.
In turn, TCATCTTACTCCGCTCCA returned a remaining target (mRNA or protein) (fraction of control) of 0.66.
In the case of TCTTTTATTGAGGTCTTC, the remaining target (mRNA or protein) (fraction of control) is at least 1.
The sequence CTTTTACCAGATTCACCA displayed a remaining target (mRNA or protein) (fraction of control) of 0.96.
On the same count and under the same terms, for TCCCCATAGCCCTAATGA the value was 0.21; for TAAAAGAGACCACAATCT, 0.81; for TCACCCTAAAATCCTAAG, at least 1.
Regarding AGCCCTAATGATAGCAAT, the remaining target (mRNA or protein) (fraction of control) was 0.33.

The target of a further data set is GNAI2. The following applies: ASO.
On to AGTCCTTCAGGTTGTTCT, for which the remaining target (mRNA or protein) (fraction of control) came out at 0.54.
GCGAACCCCTCCCCTACG: the remaining target (mRNA or protein) (fraction of control) is 0.71.
For ACACAGACAAGACAATGT, the remaining target (mRNA or protein) (fraction of control) was at least 1.
Turning to GCGCTTATTCAGGTCCTC, the remaining target (mRNA or protein) (fraction of control) was determined as 0.33.
Still for that read-out and setting: for CCCCTCCCTCATACACAG the value was 0.62; for GCCCCGCTGCCCCTCAGA, 0.65.
On the same count and under the same terms, to CCCTCCAGACGCAGCCTT belongs 0.47; to AGGCTCCCTGTAAACATT, 0.77; to CCTCAAACTTACTCTGGA, 0.85.
In the case of ATGGTGCTCTTCCCTGAC, the remaining target (mRNA or protein) (fraction of control) was 0.52.
As for GGCAGGCTTCAAACAGGG, the remaining target (mRNA or protein) (fraction of control) amounted to 0.52.
With AGCCCATCCCGCCGTCCG, the remaining target (mRNA or protein) (fraction of control) came out at 0.91.
Sequence ACCAGCATCTCAGACAAG displayed a remaining target (mRNA or protein) (fraction of control) of at least 1.
Regarding CTGCTTGACGATGGTGCT, the remaining target (mRNA or protein) (fraction of control) is 0.6.
As to CGGACAGGTCATCAGGGA, the remaining target (mRNA or protein) (fraction of control) came to 0.59.
In turn, AGGTCGTTCAGGTAGTAG displayed a remaining target (mRNA or protein) (fraction of control) of 0.64.

The next data set deals with PYGL. The following applies: ASO.
Regarding TTCTGGTTGAGCTCCCATGC, the remaining target (mRNA or protein) (fraction of control) is 0.52.
CAGCGGTTCGCCCATGGCTG yielded a remaining target (mRNA or protein) (fraction of control) of 0.98.
For TCATATTGCCTGTCCCCGAG, the remaining target (mRNA or protein) (fraction of control) came to 0.18.
Sequence ACGGGCCAGCGCTCCAGGGC yielded a remaining target (mRNA or protein) (fraction of control) of 0.47.
Sequence CTGCAAGTCCTGGGTTGCAG gave a remaining target (mRNA or protein) (fraction of control) of 0.49.
Take GCCGTATCCATAGGCTGCAA: the remaining target (mRNA or protein) (fraction of control) is at least 1.
On the same count and under the same terms, to ATTTTGCAGACCGAGGTTGA belongs 0.31; to TACCTGCCATCCATCTCGGA, 0.15.
Turning to CTTGACCAGCGTGAAGTGCA, the remaining target (mRNA or protein) (fraction of control) is 0.48.
GCAGGCAGCAAGTCTCCCAA yielded a remaining target (mRNA or protein) (fraction of control) of 0.29.
On the same count and under the same terms, for GGGCGGGACTTCTCCCAAGG the value was 0.79; for CCCATGTAAAATTCCAGAGA, 0.44; for AGGATGGGTTGATCTTCACT, 0.39.
For the sequence GCGCGAAGTAGTAGTCGCGG, the remaining target (mRNA or protein) (fraction of control) turned out to be 0.8.
Regarding ATCACCCAGGAAGCTGTGGA, the remaining target (mRNA or protein) (fraction of control) was 0.31.
The sequence GAAGTCCTTGAATACTTTAG displayed a remaining target (mRNA or protein) (fraction of control) of 0.4.
ATCAGAGACATCCTTCTCAG showed a remaining target (mRNA or protein) (fraction of control) of 0.33.
On the same count and under the same terms, to TGGAGCCAAACTTGGAGGCT belongs 0.32.
As for ATGCTTCTGATTTATCTCAT, the remaining target (mRNA or protein) (fraction of control) is 0.49.
TCCAGCGCCCCACCAGGTGG: the remaining target (mRNA or protein) (fraction of control) is 0.44.
The same measure, in the same setting: for CACAGCATGGGAACCGACAA the value was 0.15; for TCCCGGTGTTGGTGTGTTCT, 0.63; for TCCAACATTAAAGTCTCTGA, 0.62.
Turning to ATGCTCATGCCAAAGATGAA, the remaining target (mRNA or protein) (fraction of control) was found to be 0.98.
Same read-out and setting: for CCACATTGGCCCCATCCATG the value was 0.19; for CCCCATTCCCAGAGATACTC, 0.32; for CAGCTTTACCACCAATGATA, 0.29.
Same read-out and setting: to GGTGTTGACAGTGTTATTCA belongs 0.56; to CGGGCTGCGCAGAGAGCTGG, 0.87; to TCTGTCAGCGGTTCGCCCAT, 0.69.
In turn, ATCTGTGGCTGGAATGACTT showed a remaining target (mRNA or protein) (fraction of control) of 0.79.
As to TCATGATAAAATAGCATGTT, the remaining target (mRNA or protein) (fraction of control) was at least 1.
The same measure, in the same setting: for TTCCAACCATAGGGTCATTG the value was 0.27.
Sequence TTGTCAATTTGATCAATGAC showed a remaining target (mRNA or protein) (fraction of control) of 0.62.
In turn, TGCCACGTTCTCCACGCCCA registered a remaining target (mRNA or protein) (fraction of control) of 0.18.
Consider ACAGTTCAAGAGCTGTCGCT, for which the remaining target (mRNA or protein) (fraction of control) was 0.39.
On to CTCTTCTATATCCAATCCAA, for which the remaining target (mRNA or protein) (fraction of control) was determined as 0.63.
Turning to AGTATTCTTTTGCCTCGTAC, the remaining target (mRNA or protein) (fraction of control) was found to be 0.21.
Still for that read-out and setting: to CCGCCCCGCCGCGCCAGGAG belongs at least 1; to ATTGTCATTGGGATAGAGGA, 0.49.
